In US20090258869A1, “METHODS AND COMPOUNDS FOR TREATMENT OR PREVENTION OF SUBSTANCE-RELATED DISORDERS” (The Regents of the University of California, priority 2008, published 2009):

Tests used:
[1] = general statement, no test described; cited from earlier work
animals = conditions: literature; cited from earlier work
[2] = system: Tyrosine hydroxylase (TH); test: TH protein levels (immunoreactivity) by Western blot in ethanol-treated SH-SY5Y cells; type: cell-based, human
Procedure: (§1) Cell culture. […] MEM nonessential amino acid solution (Invitrogen).
(§2) Treatments. Cells were treated with ethanol for 12-48 h in low serum media by replacing the media with ethanol every 12 h. […] PI-PLC was incubated with cells at a concentration of 0.3 u/ml for 1 h as described previously (1). Anti-GDNF neutralizing antibodies were dissolved in PBS and were used at a concentration of 10 μg/ml.
(§3) Western blot and immunoprecipitation. Cells were collected and lysed in RIPA buffer plus protease and phosphatase inhibitor cocktails for Western blot and immunoprecipitation as described previously (1,30). Briefly, 15 μg of each homogenate was subjected to an SDS-PAGE gel and blotted on a nitrocellulose membrane for Western blot analysis with anti-TH antibody or other primary antibodies, followed by reprobing with anti-Actin antibody. Alternatively, 500 μg of each homogenate was incubated with 5 μg of anti-TH, anti-HSP90 or anti-Akt antibodies in TBS-T buffer overnight at 4° C.1 followed by a 2-h incubation with Protein G agarose beads. Immunoprecipitates were separated on an SDS-PAGE gel for Western blot analysis.
(§4) Quantification and statistical analysis.

Hsp90 = Hsp90 protein levels by Western blot in SH-SY5Y cells; type: cell-based, human
Procedure: as §1, §2, §3, §4

TH-Hsp90 association = test: Co-immunoprecipitation of TH with Hsp90 in SH-SY5Y cells; type: cell-based, human; conditions: 100 mM ethanol 24 h
Procedure: Treatments. […] PI-PLC was incubated with cells at a concentration of 0.3 u/ml for 1 h as described previously (1). Anti-GDNF neutralizing antibodies were dissolved in PBS and were used at a concentration of 10 μg/ml.

[3] = system: Tyrosine hydroxylase (TH); test: Pulse-chase analysis of 35S-labeled TH protein stability in SH-SY5Y cells; type: cell-based, human
Procedure: as §1
Pulse-chase analysis. 24 h after ethanol treatment, cells were labeled following a pulse-chase procedure as described previously (31) with modifications. Briefly, cells were incubated with methionine/cystine-free DMEM (Invitrogen) containing 1% dialyzed FBS for 1 h and then labeled in the Met/Cysfree medium containing 25 μCi of Amersham Redivue Pro-Mix L-[35S] in vitro Cell Labeling Mix per ml for 3 h. Dialysis of FBS was performed against the Met/Cys-free medium overnight. After labeling, cells were washed twice with the normal medium and chased in the normal medium without ethanol for 2-8 h before homogenizing as described above. Homogenates were centrifuged and protein concentrations of the supernatants were determined. An equal amount of protein from each sample was immunoprecipitated with anti-TH antibody and separated by electrophoresis on an 8% SDS gel. Autoradiography was performed by exposure of the dried gels to Amersham Storage Phosphor Screen and visualization of radioactive signals using the Typhoon 9410 Variable Mode Imager (GE Healthcare).
as §4

TH mRNA = conditions: 100 mM ethanol 12 h or 24 h
[4] = system: Akt kinase and Hsp90 association; conditions: 100 mM ethanol 24 h
GDNF gene expression = conditions: in vitro in SH-SY5Y cells and in the midbrain region containing the VTA in vivo; previously reported; cited from earlier work
[5] = 100 mM ethanol 24 h, 25 ng/ml GDNF added for the last 12 h

CO[C@H]1/C=C\C=C(/C)C(=O)NC2=CC(=O)C(NCCN(C)C)=C(C[C@@H](C)C[C@H](OC)[C@H](O)[C@@H](C)/C=C(\C)[C@@H]1OC(N)=O)C2=O [17-DMAG, 17-(2 dimethylaminoethyl)amino-17-desmethoxy-geldanamycin]
water solubility [1]: more soluble

COC1=C2C[C@@H](C)C[C@H](OC)[C@H](O)[C@@H](C)/C=C(\C)[C@H](OC(N)=O)[C@@H](OC)/C=C\C=C(/C)C(=O)NC(=CC1=O)C2=O [GA, Geldanamycin]
water solubility [1]: less than ideal

O=C1CC[C@@]2(O)[C@H]3Cc4ccc(O)c5c4[C@@]2(CCN3CC2CC2)[C@H]1O5 [Naltrexone, naltrexone]
ethanol consumption in animal studies (animals): decrease

C[C@@H]1C[C@@H]([C@H](O)CC2CC(=O)NC(=O)C2)C(=O)[C@@H](C)C1 [cycloheximide, reference compound]
ethanol-mediated increases in TH protein levels ([2]; 100 mM ethanol 24 h, 30 μg/ml CHX for the last 12 h): did not inhibit

CCO [ethanol]
immunoreactivity of TH ([2]; 10 mM ethanol, 24 h): significant increase | duration of ethanol-induced increase in TH protein levels ([2]; 100 mM ethanol 24 h, detected 24 h after ethanol washout): long-lasting | TH protein levels ([2]; 100 mM ethanol, after 24 h and 48 h of exposure): increase | increase in TH protein levels, dependence on ethanol concentration ([2]; different concentrations of ethanol, 24 h): dose-dependent manner | protein level of Hsp90 (Hsp90; 100 mM ethanol alone, 12 h or 24 h): did not alter | association of TH with Hsp90 (TH-Hsp90 association): induced | quantity of 35S-labeled TH protein at all points in the chase time course ([3]; 100 mM ethanol 24 h before pulse-chase, compared to control): increase | TH mRNA (TH mRNA): did not increase | association between Akt kinase and Hsp90 [4]: did not alter

ibogaine [reference compound]
ethanol induced increases in TH levels ([2]; 100 mM ethanol 24 h, 10 μM ibogaine added for the last 12 h): inhibited | GDNF gene expression (GDNF gene expression): increases

B1: GDNF: Recombinant human GDNF polypeptide (glial cell line derived neurotropic factor) from R&D Systems (protein, UniProt P39905 78-211, looked up)
Glial cell line-derived …: SPDKQMAVLPRRERNRQAAAANPENSRGKGRRGQRGKNRGCVLTAIHLNVTDLGLGYETKEELIFRYCSGSCDAAETTYDKILKNLSRNRRLVSDKVGQACCRPIAFDDDLSFLDDNLVYHILRKHSAKRCGCI
ethanol-mediated increase in TH levels [2, 5]: reversed | Hsp90 immunoreactivity (Hsp90; [5]): not due to alteration | ethanol-mediated association of Hsp90 with TH (TH-Hsp90 association; 25 ng/ml GDNF added for the last 12 h): reversed | quantity of 35S-labeled TH at all points on the chase time course [3, 5]: downregulates
